The values below come from paper PMC10291551, “Characterization of a Potent and Orally Bioavailable Lys-Covalent Inhibitor of Apoptosis Protein (IAP) Antagonist” (Journal of Medicinal Chemistry, 2023).

The conditions of data set [1]: pH = 7.5, T = 25 °C; cited from earlier work.
The nature of data set [2]: in vivo. The following applies: Balb/c, mouse, plasma, 30 mg/kg.
Data set [3] in a line: Solubility in dosing formulation. Conditions: dosing formulation of 80% PBS, 10% ethanol, 10% Tween80, aqueous with cosolvent or surfactant or cyclodextrin. The data set is classed as physicochemical.
On the set-up of data set [4]: method as in PMID 31550155. Conditions: cited from earlier work.
Data set [5] has as its target T1, cIAP1-BIR3 (Homo sapiens, UniProt Q13490).
T1 construct: from the BIR3 domains of XIAP, cIAP1, and cIAP2
In words: DELFIA displacement assay (biotinylated AVPI peptide). It counts as binding.

Usually bioavailability stands for the share of a dose that reaches the circulation, judged against a reference dose that is usually intravenous. In general, solubility refers to how much of the substance goes into solution per volume. A low value points to little dissolved substance. A word on the IC50: it is the midpoint of a concentration-inhibition curve. A high value points to a need for much substance.

≈ marks a conversion by molar mass, not a printed value. A value given as a limit tells only on which side of the number the result lay.

For the compound `CN[C@@H](C)C(=O)N[C@H](C(=O)N1CCC[C@H]1C(=O)N[C@@H]1CCc2c(OS(=O)(=O)F)cccc21)C1CCCCC1` [142D6, (R)-1-((S)-1-((S)-2-cyclohexyl-2-((S)-2-(methylamino)propanamido)acetyl)pyrrolidine-2-carboxamido)-2,3-dihydro-1H-inden-4-yl sulfurofluoridate], the “solubility in aqueous buffer” value in data set [1] is recorded as “up to 2 mM”. Besides, the bioavailability at 24 h turned out to be 35% in data set [2] (ip) and 36% in data set [2] (po). In addition, in data set [3], the solubility stood at 7500 µg/mL (≈ 13.6 mM).

Regarding `CN[C@@H](C)C(=O)N[C@H](C(=O)N1CCC[C@H]1c1nc(C(=O)c2ccc(F)cc2)cs1)C1CCCCC1` [LCL161], the “plasma stability t1/2” value in data set [4] is given as greater than 2 h.

In the case of `CN[C@@H](C)C(=O)N[C@H](C(=O)N1CCC[C@H]1C(=O)N[C@@H]1CCc2c(O)cccc21)C1CCCCC1` [compound 1, (S)-1-((S)-2-cyclohexyl-2-((S)-2-(methylamino)propanamido)acetyl)-N-((R)-4-hydroxy-2,3-dihydro-1H-inden-1-yl)pyrrolidine-2-carboxamide], the IC50 in data set [5] (after 6 h preincubation (bottom values)) was 19.3 nM; in data set [5] (without preincubation (top values)), 16.6 ± 1.7 nM.
